Tests used:
MTT cytotoxicity assay = settings: human
Experimental: PC3 cells were seeded into 96-well plates (3000 cells/well) and allowed to attach overnight. Cells were then incubated in media containing 0.3-100 μM inhibitors for 72 h. 3-(4,5-Dimethylthiazol-2-yl)-2,5-diphenyltetrazolium bromide methyl thiazolyl tetrazolium (MTT) solution was prepared at 2 mg/ml concentration in PBS, sterilized by filtering through a 0.2 μm filter, and wrapped in foil to protect from light. 50 μl MTT solution was added to each well and incubated for 4 h at 37°C. Then, media was removed and 200 μl DMSO was added to each well. The plate was mixed for 5 min and the optical density was determined at 570 nm.
PC3 cells were seeded into 96-well plates (3000 cells/well) and were then incubated in media containing 0.3-100 μM inhibitors for 72 h. MTT solution was added to each well and incubated for 4 h. Optical density was read at 570 nm to determine cell viability. The EC50 was determined as the mean ± S.E.M. of three independent experiments for each compound.

PKD1 = target: T1, PKD1 (Homo sapiens, UniProt Q15139); assay: In vitro radiometric PKD kinase assay; type: biochemical; parameters: purchased Biomol International; settings: for IC50: radiometric kinase assay, mean ± S.E.M.; for fold greater selectivity toward PKD1: versus PKD2 and PKD3
T1 sequence (Q15139 1-912): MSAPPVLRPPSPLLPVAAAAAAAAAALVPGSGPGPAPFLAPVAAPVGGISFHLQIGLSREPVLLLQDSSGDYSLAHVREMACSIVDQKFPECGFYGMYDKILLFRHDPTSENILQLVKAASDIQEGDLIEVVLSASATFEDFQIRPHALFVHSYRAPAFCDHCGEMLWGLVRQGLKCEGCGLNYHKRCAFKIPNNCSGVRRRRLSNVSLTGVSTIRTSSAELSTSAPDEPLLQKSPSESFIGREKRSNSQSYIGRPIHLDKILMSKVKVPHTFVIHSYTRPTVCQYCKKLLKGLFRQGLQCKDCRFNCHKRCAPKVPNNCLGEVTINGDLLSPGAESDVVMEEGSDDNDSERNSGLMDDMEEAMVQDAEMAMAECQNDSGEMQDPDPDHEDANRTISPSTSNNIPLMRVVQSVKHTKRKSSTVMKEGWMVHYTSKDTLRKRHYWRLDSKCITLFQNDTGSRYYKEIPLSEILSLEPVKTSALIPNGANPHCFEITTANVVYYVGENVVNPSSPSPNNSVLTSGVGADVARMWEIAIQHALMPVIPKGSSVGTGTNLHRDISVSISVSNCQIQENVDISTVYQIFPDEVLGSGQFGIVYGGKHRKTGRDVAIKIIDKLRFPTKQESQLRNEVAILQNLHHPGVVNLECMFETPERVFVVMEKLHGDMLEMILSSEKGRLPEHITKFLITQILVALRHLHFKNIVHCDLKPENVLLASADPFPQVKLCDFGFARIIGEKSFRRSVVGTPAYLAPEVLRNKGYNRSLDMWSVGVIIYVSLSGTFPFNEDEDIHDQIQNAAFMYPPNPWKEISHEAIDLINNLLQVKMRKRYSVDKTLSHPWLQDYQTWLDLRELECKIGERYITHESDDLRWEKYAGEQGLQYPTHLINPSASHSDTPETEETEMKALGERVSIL
Experimental: In vitro radiometric kinase assays were conducted as previously described. Briefly, 1 μCi [γ-^32P] ATP (PerkinElmer Life Sciences), 70 μM ATP, 50 ng purified recombinant human PKD1 (Biomol International, Plymouth Meeting, PA), PKD2 (SignalChem, Richmond, BC, Canada), or CAMKIIα (Enzo Life Sciences) or 75 ng PKD3 (Enzo Life Sciences), and 2.5 μg syntide-2 (Sigma) in 50 μl kinase buffer containing 50 mM Tris-HCl, pH 7.5, 4 mM MgCl2, and 10 mM β-mercaptoethanol. For the CAMK assay, 0.5 mM CaCl2 and 30 ng/μl calmodulin were pre-incubated for 10 min on ice, and then added to each reaction mixture. The reaction was incubated at 30°C for 10 min, and 25 μl of the reaction mixture was then spotted onto Whatman P81 filter paper (Whatman Inc., Clifton, NJ). The filter papers were washed 3 times in 0.5% phosphoric acid, air-dried, and counted using a Beckman LS6500 multipurpose scintillation counter (Beckman).
The in vitro inhibitory activities of the novel compounds toward PKD were determined using radiometric PKD kinase activity assays. Recombinant human PKD1, -2, or -3 was incubated with the substrate, syntide-2, in the presence of 10 different concentrations of each compound. IC50 values were determined for each compound by plotting percent PKD activity versus compound concentration for each point.
A-E, inhibition of recombinant human PKD1 in vitro. […] A 10-point concentration curve was generated for each compound for IC50 determination. Each IC50 was determined as the mean ± S.E.M. of three independent experiments with triplicate determinations at each concentration in each experiment. Representative graphs are shown.

DU145 cells = assay: Matrigel invasion assay; type: cell-based; settings: 10 μM, 22 h
Experimental: DU145 cells (8.0 × 10^4 cells/ml) in RPMI containing 0.1% fetal bovine serum (FBS) were seeded into the top chamber of BioCoat control inserts (pore size 8 μm) or BioCoat Matrigel invasion inserts with Matrigel-coated filters (BD Pharmingen). To stimulate invasion, media in the lower chamber of the insert contained 20% FBS. […] After incubation, noninvasive cells were removed using a cotton swab, and invasive cells were fixed in 100% methanol and stained with 1% crystal violet. After staining, cells were counted under a microscope (200× magnification). The percentage invasion was determined by cell counts in 5 fields of the number of cells that invaded the Matrigel matrix relative to the number of cells that migrated through the control insert.
After 22 hours, noninvasive cells were removed and invasive cells were fixed in 100% methanol, stained in […] crystal violet solution, and photographed. The number of cells that invaded the Matrigel matrix was determined by cell counts in 5 fields relative to the number of cells that migrated through the control insert. The data shown is the mean ± S.E.M. of two independent experiments. Statistical significance versus the control DMSO was determined by unpaired t-test. ***, p < 0.001.

| Compound | EC50 at 72 h (MTT cytotoxicity assay; PC3 cells) | IC50 (PKD1) | inhibition of invasion (in words) (DU145 cells) | EC50 at 72 h (MTT cytotoxicity assay) | fold reduction of potency for PKD1 (PKD1; versus kb-NB142-70) | fold greater inhibition of PKD1 than the parental compound CID755673 (PKD1) | fold greater selectivity toward PKD1 (PKD1) | percent invasion (DU145 cells) |
| --- | --- | --- | --- | --- | --- | --- | --- | --- |
| O=C1NCCCc2c1oc1ccc(O)cc21 [CID755673, 7-Hydroxy-2,3,4,5-tetrahydro-[1]benzoxolo[2,3-c]azepin-1-one] | 320 µM | 0.182 ± 0.027 µM | significantly inhibited invasion |  |  |  |  |  |
| O=C1NCCCSc2c1sc1ccc(O)cc21 [kb-NB165-92] |  | 0.111 ± 0.006 µM | levels similar to the parental compound | 78.3 µM | 2-4 fold |  |  |  |
| O=C1NCCSc2c1sc1ccc(O)cc21 [kb-NB142-70] | 8.03 µM | 0.0283 ± 0.0023 µM |  |  |  | 7 fold | about 2 fold | 10% |
| COc1ccc2sc3c(c2c1)SCCNC3=O [kb-NB165-09] | 50 µM | 0.0825 ± 0.0046 µM |  |  |  |  |  | 10% |
| COc1ccc2sc3c(c2c1)SCCCNC3=O [kb-NB184-02] |  | 0.193 ± 0.0274 µM | levels similar to the parental compound | 33.8 µM |  |  | about 2 fold |  |
| O=C1NCCSc2c1sc1ccc(O)c(I)c21 [kb-NB165-31] |  | 0.114 ± 0.0239 µM | levels similar to the parental compound | 31.9 µM |  |  |  |  |
